Common to all, as to assay type: cell-based
Experiment [1] has as its system Plasmodium falciparum (strain K1). Description: In vitro drug susceptibility assay, protozoon C (3[H]-hypoxanthine method). Here is the method: (§1) Plasmodium falciparum strain K1 and strain 3D7 parasites were cultured according to Trager W and Jensen JB (Science 1976, 193: 673-675). In vitro drug susceptibility assays with the test compounds were carried out according to Korsinczky M et al. (Antimicrobial agents and chemotherapy 2000, 44(8): 2100-2108) and Fivelman QL et al. (Antimicrobial agents and chemotherapy 2004, 48(11): 4097-4102) using a ^3[H]-hypoxanthine radioisotope method. ED50 values were calculated with Msxlfit (IDBS).
(§2) The following protozoa were assessed: • A) Trypanosoma cruzi (Tulahuan-LACZ amstigotes in PEM, Lorente SO et al., Antimicrobial agents and chemotherapy 2004, 48(8): 2937-2950; Buckner et al., Infection and Immunity 1999, 67(1): 403-409; Buckner et al., Antimicrobial Agents and Chemotherapy 1996, 40(11): 2592-2597) • B) Trypanosoma brucei rhodesiense (strain STIB900, Lorente SO et al., Antimicrobial agents and chemotherapy 2004, 48(8): 2937-2950; Habtemariam S, BMC Pharmacology 2003, 3:6) • C) Plasmodium falciparum (strain K1, Korsinczky M et al., Antimicrobial agents and chemotherapy 2000, 44(8): 2100-2108; Thaitong S and Beale GH, Trans. R. Soc. Trop. Med. Hyg. 1981, 75: 271-273; Trager W and Jensen JB, Science 1976, 193: 673-675) • D) Plasmodium falciparum (strain 3D7, Mu et al., PLoS Biology 2005, 3(10): e335)

For experiment [2], the system named is Trypanosoma cruzi (Tulahuan-LACZ amstigotes in PEM). Briefly: In vitro drug activity assay, protozoon A (amastigotes in murine peritoneal macrophages, CPRG readout). The settings on record: infected macrophages exposed for 3 days. As for the experimental part: Murine (CD1) peritoneal macrophages were harvested 24 hours after starch induction and dispensed into 96-well plates at a concentration of 4 x 10^5 mL. After 24 hours, the cells were infected with Trypanosoma cruzi Tulahuan LAC-Z amastigotes (grown and cultured according to Buckner et al., Infection and Immunity 1999, 67(1): 403-409). 24 hours later, the infected cells were exposed to the test compounds (compounds of the invention as well as known prior art compounds) for 3 days and 50 µL of 500 µM CPRG-1% Nonidet P-40 was added to each well. The plates were read after 2 to 5 hours at 570 nm (Buckner et al., Antimicrobial Agents and Chemotherapy 1996, 40(11): 2592-2597). ED50 values were calculated with Msxlfit (IDBS).
as §2

The test system of experiment [3] is Plasmodium falciparum (strain 3D7). Description: In vitro drug susceptibility assay, protozoon D (3[H]-hypoxanthine method). Here is the method: as §1, §2
Experiment [4] concerns Aspergillus fumigatus (strain 322-384). Description: Anti-fungal susceptibility test (microdilution), fungus I. The settings on record: Aspergillus fumigatus, no visible growth after 72 hours at 35° C, read-out: MIC. Here is the method:
(§3) The antifungal activities of the test compounds (compounds of the invention and known prior art compounds) were measured according to standard microdilution methods (Cryptococcus/Aspergillus: Ghannoum et al., Journal of Clinical Microbiology 1992, 30 (11): 2881-2886; Candida: Reference method for broth dilution susceptibility testing of yeast: proposed standard, NCCLS document M27-P, National Committee for Clinical Laboratory Standards 1992, Villanova, Pa).
(§4) A serial dilution series starting from 64 µg/mL test compound per well down to 0.125 µg/mL test compound per well was applied for each test compound on each fungus. The MIC of each compound was defined as the concentration which produces no visible growth after 48 hours (Candida) and 72 hours (Cryptococcus, Aspergillus) of culture at 35° C.
(§5) The following fungi were assessed: • A) Candida albicans (ATCC 10231) • B) Candida albicans (ATCC 90028) • C) Candida albicans (strain TS3, Shrikantha et al., Journal of Bacteriology 2000, 182(6):1580-1591) • D) Candida parapsilosis (ATCC 22019) • E) Cryptocoocus neoformans (ATCC 90112) • F) Cryptocoocus neoformans (strain H99; Ganendren et al., Antimicrobial Agents and Chemotherapy, 2004, 48(5):1561-1569) • G) Cryptocoocus gattii (ATCC 32608) • H) Aspergillus fumigatus (ATCC 204305) • I) Aspergillus fumigatus (strain 322-384)

The test system of experiment [5] is Aspergillus fumigatus (ATCC 204305). Description: Anti-fungal susceptibility test (microdilution), fungus H. The settings on record: Aspergillus fumigatus, ATCC204305, no visible growth after 72 hours at 35° C, read-out: MIC. Here is the method: as §3, §4, §5
(In general: In broth dilution the organism is exposed to a series of concentrations in liquid medium.)

Experiment [6] has as its system RKOp21 (human colon adenocarcinoma) cells. Description: XTT cytotoxicity assay, RKOp21 cells. The settings on record: 48 h, 2 days of continuous drug exposure. Here is the method: Human tumor cell lines KB/HeLa (ATCC CCL17, human cervix carcinoma), PC3 (ATCC CRL1435, human prostate carcinoma) and RKOp21 (human colon adenocarcinoma) cells were used in an automated XTT screening assay for the assessment of cytotoxicity.
The XTT assay quantifies cellular metabolic activity which correlates with cell viability and cell number. Test compounds (selected compounds of the invention and known substances as controls) are dissolved in culture medium at 600µM and added to the tumor cells in 10 different concentrations in a semi-logarithmic fashion starting from 100 µM as highest concentration.
48h later cellular metabolic activity of cells treated with test compounds is quantified by measurement of the absorbance at 490nm (conversion of XTT dye) in comparison to untreated control cells (100% viability).
KB/HeLa and PC3 cells were cultivated in RPMI medium supplemented with 10% heat inactivated fetal calf serum, 2 mM glutamine, 100 U/ml penicillin, and 100 µg/ml streptomycin. RKOp21 cells were grown in DMEM supplemented with 10% heat inactivated fetal calf serum, 2 mM glutamine, 100 U/ml penicillin, and 100 µg/ml streptomycin. All cells were cultured at 37°C in 5% CO2 humidified air.
On the first day of the experiment cells were harvested from exponential phase cultures by trypsination, counted and plated into 96 well flat-bottom micro titer plates depending on the cell line as listed below:
After a 24h recovery to allow the cells to resume exponential growth, the test compounds were diluted immediately prior to use and transferred in 25µl volume to the wells.
Following 2 days of continuous drug exposure 50µl of freshly prepared XTT-PMS solution (2% […] PMS in PBS + 98% 1 mg/ml XTT in RPMI 1640 without phenol red) was added to the wells. To measure the proportion of living cells, the cells were incubated for 3 h with XTT-PMS reagent at 37°C, 5% CO2, humidified atmosphere allowing to form the formazan salt. The amount of soluble formazan salt produced by cellular reduction of XTT is quantified by measuring the absorbance at 490nm using the Biomek® 2000 ELISA plate reader.
%-inhibition (cytotoxicity) of each test compound was calculated in relation to untreated control cells. Inhibition curves were generated and IC50 values calculated by using GraphPad Prism.
In general terms: Tetrazolium dyes change colour on reduction, which living cells bring about.

Experiment [7] deals with Candida albicans (ATCC 10231). Briefly: Anti-fungal susceptibility test (microdilution), fungus A. The settings on record: Candida albicans, ATCC10231, no visible growth after 48 hours at 35° C, read-out: MIC. As for the experimental part:
as §3, §4, §5

≈ marks a conversion by molar mass, not a printed value.

This is an account of results in patent publication EP1800684A1, “Novel alkyl phospholipid derivatives and uses thereof” (Zentaris GmbH, priority 2005, dated 2007).

For the compound `CCCCCCCCCCCCCCCCOP(=O)([O-])OCC[N+]1(C)CCCCC1` [Compound 2, Phosphoric acid 2-(1-methyl-piperidin-1-yl)-ethyl ester hexadecyl ester], the “ED50 (µg/mL)” value is recorded as 19,36 µg/mL in experiment [1], 0,50 µg/mL in experiment [2] and 2,21 µg/mL in experiment [3]. For the same compound, the results for the MIC in experiment [4], in experiment [5] and in experiment [7] were 2 mg/L (≈ 4.47 µM), 2 mg/L (≈ 4.47 µM) and 1 mg/L (≈ 2.23 µM), respectively. Moreover, the IC50 (as a rule, the point on the concentration scale where inhibition reaches its midpoint) in experiment [6] was 40.9 µM.
